According to PubChem BioAssay (NCI):
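Compound exposure: 48 hours, 5 concentrations, 96-well plates. At the TGI there is no net growth.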

Each compound was assayed on OVCAR-8 ovarian (assay: growth of human tumour cells (NCI), 48 h).

Q: Cc1ccc(S(=O)(=O)NC(=O)N[C@@H](Cc2cnc[nH]2)C(=O)O)cc1 was tested. Which TGI did it give?
A: > 100 µM

Q: For O=NN(CCCl)C(=O)NC1CCC(O)CC1 (configuration not stated), which TGI is on record?
A: > 100 µM

Q: Which TGI does the source give for Nc1[nH]nc2nc3ccc(C(F)(F)F)cc3nc12 here?
A: 46 µM

Q: O=[N+]([O-])/C(C(Cl)=C(Cl)Cl)=C(\N1CCCCC1)n1cncn1 was tested. Which TGI did it give?
A: 40.8 µM

Q: For S=C(Nc1ccc2c(c1)oc1ccccc12)c1cccnc1, which TGI is on record?
A: > 100 µM

Q: Which TGI does the source give for O=C1c2cccnc2-c2nccc3c2c1nc1cc(Br)ccc13 here?
A: 0.388 µM

Q: NNC(=O)CSc1nc2ccccc2c(=O)n1N was tested. Which TGI did it give?
A: > 100 µM

Q: For Cc1cc(S(=O)(=O)Nc2nc3cc(-c4ccc(Cl)cc4)sc3c(=O)n2N)c(S)cc1Cl, which TGI is on record?
A: > 100 µM

Q: CCC(=O)ONC(=O)Cn1ccc([N+](=O)[O-])n1 was tested. Which TGI did it give?
A: > 100 µM

Q: With CC(=O)NC1c2ccccc2C(C)(C)C12CCC1(CC2)OCCO1 (configuration not stated) as the compound, how does the TGI read?
A: > 100 µM

Q: CN1COCc2c1ccc1cc3ccc4c(c3nc21)COCN4S(C)(=O)=O was tested. Which TGI did it give?
A: > 100 µM

Q: Oc1cccc(-c2nc3cc(F)ccc3s2)c1 was tested. Which TGI did it give?
A: 51.2 µM

Q: CN(C)c1ccc(C2SCC(=O)N2c2ccc(Oc3ccc(Cl)cc3)c(Cl)c2)cc1 (configuration not stated) was tested. Which TGI did it give?
A: 86.4 µM

Q: How did the TGI turn out when CC(C(O)Cc1ccccc1)N(C)N=Nc1ccc([N+](=O)[O-])cc1 (configuration not stated) was run?
A: 33.7 µM

Q: Which TGI does the source give for COc1ccc(/C=C2\N=C(SC)NC2=O)cc1 here?
A: > 100 µM

Q: For CC(C)NC(=O)OCCN=c1c2ccccc2ccc2ccccc12, which TGI is on record?
A: > 100 µM

Q: Which TGI does the source give for O=c1oc2ccc([N+](=O)[O-])cc2c(Nc2ccc3c(c2)Oc2ccccc2O3)c1[N+](=O)[O-] here?
A: > 100 µM

Q: Which TGI does the source give for Cn1c2ccccc2c(=O)c2cccc(C(=O)NC(CCCN=C(N)N)C(=O)O)c21 (configuration not stated) here?
A: > 100 µM

Q: With COc1cc(OC)c(C2c3cc4c(cc3OC(N3CCCC3)C2C)OCO4)c(OC)c1 (configuration not stated) as the compound, how does the TGI read?
A: > 100 µM

Q: For Cn1c2ccccc2c(=NNc2cccc(C(=O)O)c2)c2ccccc21, which TGI is on record?
A: 53.3 µM

Q: How did the TGI turn out when O=C1C(=Cc2ccccc2O)N=C(c2ccccc2)N1n1c(-c2ccccc2)nc2ccccc2c1=O was run?
A: > 100 µM

Each compound was assayed on RPMI-8226 leukemia (assay: growth of human tumour cells (NCI), 48 h).

Q: With CC(C)(C)C(=O)CC1=Nc2ccccc2SC1(O)CC(=O)C(C)(C)C (configuration not stated) as the compound, how does the TGI read?
A: 25.7 µM

Q: How did the TGI turn out when N#CC1=C(N)N(c2ccccc2)C(c2ccccc2)C1(C#N)C#N (configuration not stated) was run?
A: 37 µM

Q: With CCCCN=C(c1ccccc1)N1CCOCC1 as the compound, how does the TGI read?
A: > 100 µM

Q: With CCOC(=O)c1ccc(C)c(N=NN(C)C)c1 as the compound, how does the TGI read?
A: > 100 µM

Q: For CC(C)CC(O)P(=O)(O)O (configuration not stated), which TGI is on record?
A: > 100 µM

Q: CCC1(C)C=Cc2c(cc(O)c3c(=O)c4ccccc4n(C)c23)O1 (configuration not stated) was tested. Which TGI did it give?
A: > 10 µM

Q: How did the TGI turn out when Cc1ccc(S(=O)(=O)NC(=O)N[C@@H](Cc2cnc[nH]2)C(=O)O)cc1 was run?
A: > 100 µM

Q: Which TGI does the source give for O=NN(CCCl)C(=O)NC1CCC(O)CC1 (configuration not stated) here?
A: 34.9 µM

Q: Nc1[nH]nc2nc3ccc(C(F)(F)F)cc3nc12 was tested. Which TGI did it give?
A: > 100 µM

Q: For O=[N+]([O-])/C(C(Cl)=C(Cl)Cl)=C(\N1CCCCC1)n1cncn1, which TGI is on record?
A: 57.2 µM

Q: How did the TGI turn out when S=C(Nc1ccc2c(c1)oc1ccccc12)c1cccnc1 was run?
A: > 100 µM

Q: With O=C1c2cccnc2-c2nccc3c2c1nc1cc(Br)ccc13 as the compound, how does the TGI read?
A: 0.448 µM

Q: With NNC(=O)CSc1nc2ccccc2c(=O)n1N as the compound, how does the TGI read?
A: > 100 µM

Q: Cc1cc(S(=O)(=O)Nc2nc3cc(-c4ccc(Cl)cc4)sc3c(=O)n2N)c(S)cc1Cl was tested. Which TGI did it give?
A: > 100 µM

Q: With CCC(=O)ONC(=O)Cn1ccc([N+](=O)[O-])n1 as the compound, how does the TGI read?
A: > 100 µM

Q: CC(=O)NC1c2ccccc2C(C)(C)C12CCC1(CC2)OCCO1 (configuration not stated) was tested. Which TGI did it give?
A: > 100 µM

Q: How did the TGI turn out when Oc1cccc(-c2nc3cc(F)ccc3s2)c1 was run?
A: 54.3 µM

Q: CN(C)c1ccc(C2SCC(=O)N2c2ccc(Oc3ccc(Cl)cc3)c(Cl)c2)cc1 (configuration not stated) was tested. Which TGI did it give?
A: 58.1 µM

Q: For CC(C(O)Cc1ccccc1)N(C)N=Nc1ccc([N+](=O)[O-])cc1 (configuration not stated), which TGI is on record?
A: 55.5 µM

Q: COc1ccc(/C=C2\N=C(SC)NC2=O)cc1 was tested. Which TGI did it give?
A: > 100 µM

Q: How did the TGI turn out when O=c1oc2ccc([N+](=O)[O-])cc2c(Nc2ccc3c(c2)Oc2ccccc2O3)c1[N+](=O)[O-] was run?
A: 70.2 µM

Q: Which TGI does the source give for Cn1c2ccccc2c(=O)c2cccc(C(=O)NC(CCCN=C(N)N)C(=O)O)c21 (configuration not stated) here?
A: > 100 µM

Q: COc1cc(OC)c(C2c3cc4c(cc3OC(N3CCCC3)C2C)OCO4)c(OC)c1 (configuration not stated) was tested. Which TGI did it give?
A: 43.1 µM

Q: With Cn1c2ccccc2c(=NNc2cccc(C(=O)O)c2)c2ccccc21 as the compound, how does the TGI read?
A: 28.3 µM

Q: With O=C1C(=Cc2ccccc2O)N=C(c2ccccc2)N1n1c(-c2ccccc2)nc2ccccc2c1=O as the compound, how does the TGI read?
A: > 100 µM

Each compound was assayed on SK-MEL-2 melanoma (assay: growth of human tumour cells (NCI), 48 h).

Q: Which TGI does the source give for CC(C)(C)C(=O)CC1=Nc2ccccc2SC1(O)CC(=O)C(C)(C)C (configuration not stated) here?
A: 32 µM

Q: For N#CC1=C(N)N(c2ccccc2)C(c2ccccc2)C1(C#N)C#N (configuration not stated), which TGI is on record?
A: 42.9 µM

Q: How did the TGI turn out when CCCCN=C(c1ccccc1)N1CCOCC1 was run?
A: > 100 µM

Q: How did the TGI turn out when CCOC(=O)c1ccc(C)c(N=NN(C)C)c1 was run?
A: > 100 µM

Q: Which TGI does the source give for CC(C)CC(O)P(=O)(O)O (configuration not stated) here?
A: > 100 µM

Q: Which TGI does the source give for CCC1(C)C=Cc2c(cc(O)c3c(=O)c4ccccc4n(C)c23)O1 (configuration not stated) here?
A: > 10 µM

Q: Cc1ccc(S(=O)(=O)NC(=O)N[C@@H](Cc2cnc[nH]2)C(=O)O)cc1 was tested. Which TGI did it give?
A: > 100 µM

Q: With O=NN(CCCl)C(=O)NC1CCC(O)CC1 (configuration not stated) as the compound, how does the TGI read?
A: > 100 µM

Q: With Nc1[nH]nc2nc3ccc(C(F)(F)F)cc3nc12 as the compound, how does the TGI read?
A: 84.3 µM

Q: For O=[N+]([O-])/C(C(Cl)=C(Cl)Cl)=C(\N1CCCCC1)n1cncn1, which TGI is on record?
A: 43.8 µM

Q: How did the TGI turn out when S=C(Nc1ccc2c(c1)oc1ccccc12)c1cccnc1 was run?
A: > 100 µM
